Experiment [1] deals with T1, Alpha-1A adrenergic receptor (Bos taurus, UniProt P18130).
T1 sequence (P18130 whole entry): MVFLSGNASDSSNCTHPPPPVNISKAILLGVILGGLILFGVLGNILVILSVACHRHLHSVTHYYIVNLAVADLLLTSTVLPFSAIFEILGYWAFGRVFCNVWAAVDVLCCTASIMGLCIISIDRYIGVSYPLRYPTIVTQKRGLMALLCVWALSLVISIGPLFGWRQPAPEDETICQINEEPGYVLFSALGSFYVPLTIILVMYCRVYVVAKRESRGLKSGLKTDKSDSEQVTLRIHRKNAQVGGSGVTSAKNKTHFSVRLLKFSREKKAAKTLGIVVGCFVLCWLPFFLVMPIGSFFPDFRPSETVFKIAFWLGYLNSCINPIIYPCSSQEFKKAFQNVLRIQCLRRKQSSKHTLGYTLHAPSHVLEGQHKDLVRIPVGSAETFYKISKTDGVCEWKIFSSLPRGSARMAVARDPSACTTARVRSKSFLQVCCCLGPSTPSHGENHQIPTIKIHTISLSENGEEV
Put plainly: Binding activity against alpha-1 adrenergic receptor from calf cerebral cortex, using [3H]-prazosin as the radioligand. The experiment is classed as tissue-based.

Experiment [2] concerns the target T2, Adrenergic receptor alpha-1 (Rattus norvegicus, UniProt P15823+P23944+P43140).
T2 sequence (P15823 whole entry): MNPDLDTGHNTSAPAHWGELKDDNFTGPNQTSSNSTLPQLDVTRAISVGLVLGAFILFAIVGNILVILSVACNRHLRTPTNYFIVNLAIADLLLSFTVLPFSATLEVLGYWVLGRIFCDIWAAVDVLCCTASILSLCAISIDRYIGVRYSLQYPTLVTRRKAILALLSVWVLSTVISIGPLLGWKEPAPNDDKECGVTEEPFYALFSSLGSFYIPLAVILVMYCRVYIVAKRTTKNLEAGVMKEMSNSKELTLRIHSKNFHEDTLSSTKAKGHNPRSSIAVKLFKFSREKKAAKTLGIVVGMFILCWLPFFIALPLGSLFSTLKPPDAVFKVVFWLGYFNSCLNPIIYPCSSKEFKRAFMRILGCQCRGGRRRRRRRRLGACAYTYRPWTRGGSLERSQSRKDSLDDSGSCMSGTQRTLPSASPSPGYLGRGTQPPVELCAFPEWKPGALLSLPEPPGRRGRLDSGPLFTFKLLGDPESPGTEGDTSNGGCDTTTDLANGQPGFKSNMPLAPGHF
T2 sequence (P23944 whole entry): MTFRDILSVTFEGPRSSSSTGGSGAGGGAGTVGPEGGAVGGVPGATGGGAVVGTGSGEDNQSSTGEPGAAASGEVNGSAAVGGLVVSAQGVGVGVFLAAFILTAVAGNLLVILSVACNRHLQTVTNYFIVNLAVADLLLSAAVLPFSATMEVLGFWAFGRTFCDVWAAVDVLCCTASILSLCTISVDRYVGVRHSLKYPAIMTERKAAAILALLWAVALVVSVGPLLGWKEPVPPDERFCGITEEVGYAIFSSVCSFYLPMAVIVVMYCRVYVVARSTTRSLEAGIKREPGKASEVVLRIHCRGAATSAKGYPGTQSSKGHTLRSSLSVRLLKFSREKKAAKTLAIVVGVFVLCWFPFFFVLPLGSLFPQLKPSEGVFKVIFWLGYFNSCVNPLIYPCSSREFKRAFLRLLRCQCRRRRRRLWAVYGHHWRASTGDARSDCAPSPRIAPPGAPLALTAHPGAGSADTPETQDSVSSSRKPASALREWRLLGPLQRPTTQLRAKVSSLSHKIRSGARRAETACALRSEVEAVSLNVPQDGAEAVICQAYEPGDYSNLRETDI
T2 sequence (P43140 whole entry): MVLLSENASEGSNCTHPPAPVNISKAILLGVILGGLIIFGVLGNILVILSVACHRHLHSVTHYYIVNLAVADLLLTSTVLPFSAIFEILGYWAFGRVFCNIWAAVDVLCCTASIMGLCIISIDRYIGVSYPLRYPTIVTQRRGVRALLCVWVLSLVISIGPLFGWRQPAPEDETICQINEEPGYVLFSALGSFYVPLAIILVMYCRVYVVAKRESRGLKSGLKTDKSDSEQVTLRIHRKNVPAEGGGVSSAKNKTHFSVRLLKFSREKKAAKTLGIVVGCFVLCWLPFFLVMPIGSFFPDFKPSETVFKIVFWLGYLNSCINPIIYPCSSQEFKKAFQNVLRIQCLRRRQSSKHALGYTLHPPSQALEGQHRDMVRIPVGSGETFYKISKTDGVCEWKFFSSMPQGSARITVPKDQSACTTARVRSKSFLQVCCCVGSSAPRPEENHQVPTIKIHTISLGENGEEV
Put plainly: Presynaptic antagonistic activity against alpha-1 adrenergic receptor from rat, isolated, field-stimulated vas deferens, using methoxamine as the agonist. The format is functional.

The target in experiment [3] is T3, Alpha-2A adrenergic receptor (Bos taurus, UniProt Q28838).
T3 sequence (Q28838 whole entry): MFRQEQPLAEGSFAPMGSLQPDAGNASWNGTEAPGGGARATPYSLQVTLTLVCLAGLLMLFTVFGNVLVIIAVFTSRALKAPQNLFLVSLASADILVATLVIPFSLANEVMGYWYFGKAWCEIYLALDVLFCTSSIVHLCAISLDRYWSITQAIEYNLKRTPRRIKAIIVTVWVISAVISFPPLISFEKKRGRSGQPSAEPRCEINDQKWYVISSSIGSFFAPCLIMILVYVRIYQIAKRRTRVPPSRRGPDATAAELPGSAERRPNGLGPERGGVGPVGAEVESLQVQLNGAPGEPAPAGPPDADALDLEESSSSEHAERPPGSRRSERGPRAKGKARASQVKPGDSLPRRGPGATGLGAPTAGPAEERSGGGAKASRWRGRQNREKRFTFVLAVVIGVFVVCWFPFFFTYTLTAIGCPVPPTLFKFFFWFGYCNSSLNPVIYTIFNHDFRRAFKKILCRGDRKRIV
Put plainly: Binding activity against alpha-2 adrenergic receptor from calf cerebral cortex, using [3H]clonidine as the radioligand. The experiment is classed as tissue-based.

In experiment [4] the target is Adrenergic receptor alpha-2 (Rattus norvegicus) (UniProt P22086+P19328+P22909).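 Also: anesthetized rats, antagonism at central alpha-2 adrenergic receptors read out as reversal of mydriasis induced by clonidine.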

The structures appear in SMILES notation. Some results are limits rather than exact numbers.

Take `Clc1cccnc1N1CCN(Cc2ccccc2)CC1`: the inhibitory constant (Ki) in experiment [1] came out at 700 nM; in experiment [3], 120 nM. The same compound registered a pA2 in experiment [2] of 7. The compound also came in with an AD50 in experiment [4] of more than 3 mg/kg.

With `CN1CCN(c2ncccc2Cl)CC1`, the inhibitory constant (Ki) in experiment [1] was 215 nM; in experiment [3], 2.7 nM. The pA2 in experiment [2] worked out at 6.5. In experiment [4], this compound came in with an AD50 of 0.56 mg/kg.

With `Fc1cccnc1N1CCNCC1`, the figures for the inhibition constant (Ki) in experiment [1] and in experiment [3] were 2500 nM and 8.2 nM, respectively. In experiment [2], the pA2 is given as 5.18. In addition, in experiment [4], the AD50 turned out to be 0.23 mg/kg.

For `CN1CCN(c2ncccc2F)CC1`, the results for the Ki in experiment [1] and in experiment [3] were 490 nM and 5 nM, respectively. Moreover, the pA2 in experiment [2] came to 6.2. This compound showed an AD50 in experiment [4] of 0.67 mg/kg.

Turning to `Clc1ccccc1N1CCNCC1`, the Ki in experiment [1] came to 160 nM; in experiment [3], 25 nM. Further, the pA2 in experiment [2] was 6.5. Also, in experiment [4], the AD50 came out at 1.03 mg/kg.

One may read the Ki as a measure of affinity in units of concentration, obtained from inhibition or displacement. A low value points to higher affinity. As usually defined, the pA2 is the negative logarithm of the molar antagonist concentration that doubles the agonist concentration needed for the same response. A higher pA2 goes with a more potent antagonist.
